According to US9637451B2, “Indole compound” (ASTELLAS PHARMA INC., priority 2014, dated 2017):

Columns and labels:
[1] = biological target: T1, human MT2 receptor (Homo sapiens, UniProt P49286); experiment: Activation of human MT2 receptor in receptor-expressing cells, intracellular Ca2+ by FLIPR; format: cell-based; settings: for EC50: HEK293 cells stably expressing human MT2 and Gq/i chimeric G protein, Ca2+ FLIPR; for Emax: maximum reaction by ramelteon taken as 100%
T1 construct: expressed in transfected cells
T1 sequence (P49286 1-362): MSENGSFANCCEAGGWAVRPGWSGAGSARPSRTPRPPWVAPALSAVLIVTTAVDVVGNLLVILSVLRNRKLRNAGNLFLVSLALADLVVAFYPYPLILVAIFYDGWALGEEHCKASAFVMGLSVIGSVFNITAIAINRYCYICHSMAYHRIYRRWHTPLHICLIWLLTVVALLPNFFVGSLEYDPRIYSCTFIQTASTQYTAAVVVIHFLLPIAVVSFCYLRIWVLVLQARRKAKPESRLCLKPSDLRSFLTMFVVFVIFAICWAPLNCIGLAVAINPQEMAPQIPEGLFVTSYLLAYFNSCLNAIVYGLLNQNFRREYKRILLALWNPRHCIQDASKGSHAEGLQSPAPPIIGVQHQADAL

[2] = biological target: T2, human MT1 receptor (Homo sapiens, UniProt P48039); experiment: Activation of human MT1 receptor in receptor-expressing cells, intracellular Ca2+ by FLIPR; format: cell-based; settings: for EC50: HEK293EBNA1 cells stably expressing human MT1 and Gq/i chimeric G protein, Ca2+ FLIPR; for Emax: maximum reaction by ramelteon taken as 100%
T2 construct: expressed in transfected cells

[3] = CSF-to-plasma unbound concentration ratio in rat after intravenous administration; format: in vivo; settings: CSF and plasma (unbound), iv, 15 minutes after intravenous administration
Experimental: A test compound (100 μg/mL, 50% acetonitrile solution) at 1% (v/v) with respect to the amount of the plasma was added to rat plasma, and dispensed to a sample for a supernatant and a sample for the plasma. The sample for a supernatant was ultracentrifuged at 436,000×g and 37° C. for 140 minutes, and the sample for the plasma was incubated at 37° C. for 140 minutes.
After 140 minutes, the sample for a supernatant after the ultracentrifugation and the sample for the plasma were taken, and mixed with the blank plasma or the blank supernatant, respectively. Acetonitrile including an internal standard material was added to each of the samples with the removal of protein, and after the centrifugation at 2150×g and 4° C. for 10 minutes the supernatant was injected into LC-MS/MS.
The unbound fraction in the plasma was calculated by the following equation.
To the plasma of a rat was added a test compound (0.2 mM, 50% acetonitrile solution) in an amount corresponding to 1% (v/v) of the plasma amount, and 200 μL of obtained plasma sample was filled into a plasma chamber of a RED device insert. A buffer chamber was filled with 350 μL of PBS, followed by performing equilibrium dialysis by stirring in a CO2 incubator at 37° C. for 16 hours. The sample after the completion of the equilibrium dialysis was recovered and the volume of the plasma sample was measured. To the plasma sample after the completion of the equilibrium dialysis were added PBS, a 20 mM ammonium formate buffer, and acetonitrile including an internal standard material. Similarly, to the PBS sample after the completion of the equilibrium dialysis was added a blank plasma, a 20 mM ammonium formate buffer, and acetonitrile including an internal standard material. This sample was left to stand at 4° C. for 30 minutes and then centrifuged 1500×g for 10 minutes, and the supernatant was measured by LC-MS/MS. The unbound fraction in the plasma was calculated by the following equation. fp=Cf/{(Cp−Cf)(V/V0)+Cf}
At 15 minutes after intravenously administration of the test compound to the rats, the plasma and CSF were collected. A 50% acetonitrile solution and an acetonitrile including internal standard material were added to the collected plasma or CSF. After centrifuging this sample at 4° C. and 2150×g for 10 minutes, the supernatant was measured by LC-MS/MS, and the total concentration of the test compound in the plasma (Cplasma,t) and the concentration of the test compound in CSF (CCSF) were obtained. The unbound concentration in the plasma (Cplasma,u) of the test compound and the CSF-to-plasma unbound concentration ratio (Kp,uu,CSF) of the test compound was calculated by the following equation.
(§1) The Kp,uu,CSF values and the Kp,brain values of ramelteon and some Example compounds of the present invention are shown in Table 4. Ex represents Example No. of the test compound. Unless otherwise specified, the Kp,uu,CSF was calculated using the fp values determined by an ultracentrifugation method. Further, N.T. represents Not Tested.
(Ramelteon represents the values of Kp,uu,CSF after 10 minutes after the intravenous administration. Further, the Kp,uu,CSF of Examples 37 and 38 was calculated using the fp values determined by an equilibrium dialysis method. In addition, N.D. denotes the concentration of the test compound in CSF that is no higher than the detection limit.)

[4] = Brain-to-plasma concentration ratio in rat after intravenous administration; format: in vivo; settings: brain and plasma, 15 minutes after intravenous administration
Experimental: At 15 minutes after intravenously administration of the test compound to the rats, the plasma and brain were collected. A 50% acetonitrile solution and an acetonitrile including internal standard material were added to the collected plasma. The collected brain was added to a 2-fold volume of PBS and homogenized. A 50% acetonitrile solution and an acetonitrile including internal standard material were added to the brain homogenate. The sample was centrifuged at 4° C. and 2150×g for 10 minutes, the supernatant was measured by LC-MS/MS, and the total concentration of the test compound in the brain (Cbrain) and the total concentration of the test compound in the plasma (Cplasma,t) were obtained. The brain-to-plasma concentrations ratio (Kp,brain) was calculated by the following equation.
as §1

[5] = tested on: isolated urethra in a rat; settings: Patent Document 5; cited from earlier work
[6] = fp by ultracentrifugation method
[7] = fp by equilibrium dialysis method

T2 sequence (P48039 whole entry): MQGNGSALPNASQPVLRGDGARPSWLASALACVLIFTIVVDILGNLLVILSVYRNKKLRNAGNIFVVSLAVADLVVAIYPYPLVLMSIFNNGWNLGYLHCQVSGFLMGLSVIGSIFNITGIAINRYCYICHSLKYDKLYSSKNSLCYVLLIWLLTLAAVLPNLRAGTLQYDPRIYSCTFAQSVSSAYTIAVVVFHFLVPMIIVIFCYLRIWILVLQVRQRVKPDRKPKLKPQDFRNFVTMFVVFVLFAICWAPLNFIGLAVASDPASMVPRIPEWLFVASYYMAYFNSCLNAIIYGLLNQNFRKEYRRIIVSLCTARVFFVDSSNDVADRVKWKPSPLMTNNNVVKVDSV

| EC50 [1] [nM] | Emax [1] [%] | EC50 [2] [nM] | Emax [2] [%] | Kp uu at 0.25 h [3, 6] | Kp at 0.25 h [4] | Kp uu at 0.25 h [3, 7] | Compound | contraction of isolated urethra, increase of urethral pressure [5] |
| --- | --- | --- | --- | --- | --- | --- | --- | --- |
| 33 | 102 | 18 | 102 | 0.11 | 0.29 |  | CC(=O)NCCc1c[nH]c2ccc(OCCn3ccc(C(F)(F)F)n3)cc12 [Example 4, N-[2-(5-{2-[3-(trifluoromethyl)-1H-pyrazol-1-yl]ethoxy}-1H-indol-3-yl)ethyl]acetamide] |  |
| 150 | 48 | 13 | 89 | 0.1 | 0.089 |  | COc1ccc(OCCOc2ccc3[nH]cc(CCNC(C)=O)c3c2)cn1 [Example 5, N-[2-(5-{2-[(6-methoxypyridin-3-yl)oxy]ethoxy}-1H-indol-3-yl)ethyl]acetamide] |  |
| 22 | 125 | 18 | 90 | 0.14 | 0.03 |  | CC(=O)NCCc1c(C)[nH]c2ccc(OCCOc3ccn(C)n3)cc12 [Example 7, N-[2-(2-methyl-5-{2-[(1-methyl-1H-pyrazol-3-yl)oxy]ethoxy}-1H-indol-3-yl)ethyl]acetamide] |  |
| 12 | 107 | 9.1 | 93 | 0.08 | 0.04 |  | CCC(=O)NCCc1c[nH]c2ccc(OCCOc3ccn(C)n3)cc12 [Example 8, N-[2-(5-{2-[(1-methyl-1H-pyrazol-3-yl)oxy]ethoxy}-1H-indol-3-yl)ethyl]propanamide] |  |
| 32 | 116 | 9.9 | 84 |  | 0.01 |  | CNC(=O)NCCc1c(C)[nH]c2ccc(OCCOc3ccnc(C)c3)cc12 [Example 9, 1-methyl-3-[2-(2-methyl-5-{2-[(2-methylpyridin-4-yl)oxy]ethoxy}-1H-indol-3-yl)ethyl]urea] |  |
| 21 | 117 | 8.3 | 95 | 0.07 | 0.02 |  | CNC(=O)NCCc1c(C)[nH]c2ccc(OCCOc3ccn(C)n3)cc12 [Example 10, 1-methyl-3-[2-(2-methyl-5-{2-[(1-methyl-1H-pyrazol-3-yl)oxy]ethoxy}-1H-indol-3-yl)ethyl]urea] |  |
| 2.4 | 99 | 0.71 | 107 | 0.05 |  |  | CC(=O)NCCc1c[nH]c2ccc(OCCOc3cccc(C)n3)cc12 [Example 11, N-[2-(5-{2-[(6-methylpyridin-2-yl)oxy]ethoxy}-1H-indol-3-yl)ethyl]acetamide] |  |
| 7 | 110 | 4.3 | 105 | 0.03 |  |  | CC(=O)NCCc1c(C)[nH]c2cc(F)c(OCCOc3ccn(C)n3)cc12 [Example 13, N-[2-(6-fluoro-2-methyl-5-{2-[(1-methyl-1H-pyrazol-3-yl)oxy]ethoxy}-1H-indol-3-yl)ethyl]acetamide] |  |
| 12 | 110 | 8.4 | 106 | 0.04 |  |  | CCC(=O)NCCc1c(C)[nH]c2ccc(OCCn3ccc(C)n3)cc12 [Example 15, N-(2-{2-methyl-5-[2-(3-methyl-1H-pyrazol-1-yl)ethoxy]-1H-indol-3-yl}ethyl)propanamide] |  |
| 21 | 123 | 7.7 | 89 | 0.11 | 0.03 |  | CC(=O)NCCc1c(C)[nH]c2ccc(OCCOc3ccnc(C)c3)cc12 [Example 18, N-[2-(2-methyl-5-{2-[(2-methylpyridin-4-yl)oxy]ethoxy}-1H-indol-3-yl)ethyl]acetamide] |  |
| 54 | 68 | 21 | 87 | 0.04 | 0.03 |  | CNC(=O)NCCc1c[nH]c2ccc(OCCOc3ccc(OC)nc3)cc12 [Example 23, 1-[2-(5-{2-[(6-methoxypyridin-3-yl)oxy]ethoxy}-1H-indol-3-yl)ethyl]-3-methylurea] |  |
| 28 | 88 | 1.4 | 104 | 0.01 |  |  | CNC(=O)NCCc1c(C)[nH]c2ccc(OCCOc3ccc(OC)nc3)cc12 [Example 31, 1-[2-(5-{2-[(6-methoxypyridin-3-yl)oxy]ethoxy}-2-methyl-1H-indol-3-yl)ethyl]-3-methylurea] |  |
| 7.1 | 104 | 2.1 | 105 |  | 0.01 | 0.08 | CC(=O)NC[C@H](C)c1c[nH]c2cc(F)c(OCCOc3ccn(C)n3)cc12 [Example 37, N-[(2R)-2-(6-fluoro-5-{2-[(1-methyl-1H-pyrazol-3-yl)oxy]ethoxy}-1H-indol-3-yl)propyl]acetamide] |  |
| 13 | 105 | 2 | 97 |  | 0.02 | 0.08 | CC(=O)NC[C@H](C)c1c[nH]c2cc(Cl)c(OCCOc3ccn(C)n3)cc12 [Example 38, N-[(2R)-2-(6-chloro-5-{2-[(1-methyl-1H-pyrazol-3-yl)oxy]ethoxy}-1H-indol-3-yl)propyl]acetamide] |  |
|  |  |  |  |  |  |  | COc1ccc2[nH]cc(CCNC(C)=O)c2c1 [Melatonin, melatonin] | contract the isolated urethra in a rat to increase the urethral pressure of the rat |
|  |  |  |  |  |  |  | COc1cc2c([C@@H](C)CNC(C)=O)c[nH]c2cc1Cl [TIK-301] | contract the isolated urethra in a rat to increase the urethral pressure of the rat |
|  |  |  |  |  |  |  | COc1ccc2cccc(CCNC(C)=O)c2c1 [agomelatine] | contract the isolated urethra in a rat to increase the urethral pressure of the rat |
|  |  |  |  |  |  |  | CCC(=O)NC[C@@H]1C[C@H]1c1cccc2c1CCO2 [tasimelteon] | contract the isolated urethra in a rat to increase the urethral pressure of the rat |
